# How the values were obtained:
# [1] = test system: alpha-synuclein transfected U2OS cells; experiment: U2OS ATP assay of alpha-synuclein toxicity; format: cell-based, human; conditions: 72 h after transfection/treatment; titration; normalized to DMSO control
# Protocol: U2OS cells were transfected with empty vector control (“pcDNA”) or alpha-synuclein (“α-synuclein/pcDNA”) in combination with a scrambled (SCR) siRNA control (50 nM), or human SCD5 siRNA (10, 25 or 50 nM). (FIG. 12A) Cellular heath was assessed 48 h after transfection by evaluating ATP levels. Cell toxicity in the alpha-synuclein plus SCR siRNA was set as the floor of the assay, and then all samples were normalized to pcDNA with […] (set to 100%) to calculate the normalized percent rescue. Bars depict mean values of triplicate determinations; error bars indicate standard deviation. A two-tailed t-test was used to compare control conditions with SCR or SCD5 siRNA (*p 0.05). Cells transfected with alpha-synuclein were analyzed together by ANOVA with Dunnett's post-test to correct for multiple comparisons (**p 0.01, ****p 0.0001). Significance is shown for the comparison of each alpha-synuclein plus SCD5 siRNA concentration compared against the alpha-synuclein plus SCR control. (FIG. 12B) Quantitative RT-PCR was utilized to confirm the levels of SCD5 mRNA. […]
# Powders of reference SCD inhibitors (CAY10566, A939572 and MF-438) were resuspended and serial diluted in DMSO. […] ATP content was then measured using the CellTiter-Glo® kit (Promega) with luminescence signals measured on an EnVision multimode plate reader (Perkin Elmer).
# SCD = experiment: Fatty acid saturation in guinea pig brain after oral administration of SCD inhibitors (GC-FID of FAME); format: in vivo; conditions: 25 mg/kg orally twice daily for 5 days; brain 4 h after last dose; vs vehicle
# Protocol: FIG. 18A-18F are a series of graphs showing an evaluation of fatty acid saturation in guinea pig brain after oral administration of SCD inhibitors. Guinea pigs were dosed orally with SCD inhibitors twice daily (every 12 hours) for 5 days. Guinea pigs were dosed with vehicle, SCD5 Selective Inhibitor 1 (“SCD5-SI-1”), SCD5 Selective Inhibitor 2 (“SCD5-SI-2”), CAY10566 (“CAY”) or SCD1/SCD5 Inhibitor 1 (“SCD1/5-1”), all compounds at 25 mg/kg with a volume-matched vehicle control. Four hours after the last dose on day 5, guinea pigs were sacrificed, and brains were removed after whole-body saline perfusion. […] Samples were evaluated on a gas chromatograph with a flame ionization detector (GC-FID) to quantify a comprehensive panel of fatty acid species. Brain samples were evaluated for levels of 16 (FIG. 18A) and 18 (FIG. 18B) carbon-containing fatty acids (C16, C18 respectively), and the desaturation index (DI) was calculated by taking the ratio of desaturated to saturated fatty acid for each species. […] Brain samples were evaluated for the relative levels of the positional isomers of C16, including C16:1 n7 palmitoleic acid (FIG. 18C) or C16:1 n9 monounsaturated fatty acids (FIG. 18D). […] Data was analyzed by one-way ANOVA with Tukey's post-hoc test to account for multiple comparisons. **p<0.01, ***p<0.005, ****p<0.0001. […]
smiles,measurement,setting,value
Cc1nnc(-c2ccc(N3CCC(Oc4cc(F)ccc4Cl)CC3)nn2)o1 [CAY10566],cellular ATP levels in alpha-synuclein transfected U2OS cells,[1],significantly reversed alpha-synuclein-dependent decreases in ATP levels
same,C16 desaturation index (DI) in brain,SCD,decreased
